According to US20050208496A1, “Methods of testing for bronchial asthma or chronic obstructive pulmonary disease” (Genox Research, Inc., priority 2002, published 2005):

System: respiratory epithelial cells

Substance: IL-13: human IL-13 (Peprotech, Inc.) added to the medium at 50 ng/mL to stimulate respiratory epithelial cells
- HLA-F (37421_f_at) expression, fold change upon IL-13 stimulation (lot 1, Day 7, IMM method): 2.1 fold
- HLA-F (49203_f_at) expression fold change (lot 1, Day 7, IMM method): 2.1 fold
- HS3ST1 (41556_s_at) expression fold change upon IL-13 stimulation (lot 1, Day 7, IMM method): 3.7 fold
- HUMRTVLH3 (34702_f_at) expression, fold change upon IL-13 stimulation (lot 1, Day 7, IMM method): 7 fold
- IFI27 (425_at) expression, fold change upon IL-13 stimulation (lot 1, Day 7, IMM method): 2.8 fold
- IFI35 (464_s_at) expression, fold change upon IL-13 stimulation (lot 1, Day 7, IMM method): 4.6 fold
- IFI44 (37641_at) expression, fold change upon IL-13 stimulation (lot 1, Day 7, IMM method): 2.3 fold
- IFIT1 (915_at) expression, fold change upon IL-13 stimulation (lot 1, Day 7, IMM method): 2.1 fold
- IFIT4 (38584_at) expression, fold change upon IL-13 stimulation (lot 1, Day 7, IMM method): 3.4 fold
- IFITM1 (675_at) expression, fold change upon IL-13 stimulation (lot 1, Day 7, IMM method): 8.1 fold
- IL13RA2 (1016_s_at) expression fold change upon IL-13 stimulation (lot 1, Day 7, IMM method): 5.3 fold
- IL19 (47855_at) expression fold change (lot 1, Day 7, IMM method): 2.6 fold
- ISG15 (1107_s_at) expression, fold change upon IL-13 stimulation (lot 1, Day 7, IMM method): 3.8 fold
- ISG15 (38432_at) expression, fold change upon IL-13 stimulation (lot 1, Day 7, IMM method): 5 fold
- ISG20 (33304_at) expression, fold change upon IL-13 stimulation (lot 1, Day 7, IMM method): 4.2 fold
- KIAA0469 (37230_at) expression, fold change upon IL-13 stimulation (lot 1, Day 7, IMM method): 2.4 fold
- KIAA0537 (33787_at) expression, fold change upon IL-13 stimulation (lot 1, Day 7, IMM method): 3.3 fold
- KIAA1199 (36070_at) expression, fold change upon IL-13 stimulation (lot 1, Day 7, IMM method): 2.3 fold
- KIAA1268 (57050_at) expression fold change (lot 1, Day 7, IMM method): 2.4 fold
- KIAAI268 (59516_at) expression fold change (lot 1, Day 7, IMM method): 4 fold
- KRT16 (601_s_at) expression fold change (lot 1, Day 7, IMM method): 3.5 fold
- LOC57118 (51085_at) expression fold change (lot 1, Day 7, IMM method): 5 fold
- MAT2A (32571_at) expression fold change upon IL-13 stimulation (lot 1, Day 7, IMM method): 2.4 fold
- MDA5 (51920_at) expression fold change (lot 1, Day 7, IMM method): 2.8 fold
- MFHAS1 (50388_at) expression fold change (lot 1, Day 7, IMM method): 2.6 fold
- MMP7 (668_s_at) expression, fold change upon IL-13 stimulation (lot 1, Day 7, IMM method): 2.8 fold
- MX2 (879_at) expression fold change (lot 1, Day 7, IMM method): 2.4 fold
- MXI (37014_at) expression fold change (lot 1, Day 7, IMM method): 11.2 fold
- NK4 (39119_s_at) expression fold change upon IL-13 stimulation (lot 1, Day 7, IMM method): 2.5 fold
- NOS2A (1948_f_at) expression fold change upon IL-13 stimulation (lot 1, Day 7, IMM method): 2.8 fold
- NOS2A (48918_at) expression fold change (lot 1, Day 7, IMM method): 2.5 fold
- NTRK1 (36805_s_at) expression, fold change upon IL-13 stimulation (lot 1, Day 7, IMM method): 6.5 fold
- OAF (39695_at) expression, fold change upon IL-13 stimulation (lot 1, Day 7, IMM method): 5.1 fold
- OAS1 (38388_at) expression fold change upon IL-13 stimulation (lot 1, Day 7, IMM method): 3.3 fold
- OAS1 (38389_at) expression fold change upon IL-13 stimulation (lot 1, Day 7, IMM method): 3.3 fold
- OSF-2 (1451_s_at) expression fold change upon IL-13 stimulation (lot 1, Day 7, IMM method): 30.6 fold
- PHKB (46459_at) expression fold change (lot 1, Day 7, IMM method): −2.7 fold
- PITPNB (35017_f_at) expression, fold change upon IL-13 stimulation (lot 1, Day 7, IMM method): 2.1 fold
- PLS1 (39951_at) expression fold change (lot 1, Day 7, IMM method): 7.9 fold
- PSMB9 (38287_at) expression fold change upon IL-13 stimulation (lot 1, Day 7, IMM method): 3.1 fold
- RASGRP1 (33291_at) expression fold change (lot 1, Day 7, IMM method): 3.3 fold
- RIG-1 (59215_at) expression fold change (lot 1, Day 7, IMM method): 3.8 fold
- SECTM1 (41045_at) expression, fold change upon IL-13 stimulation (lot 1, Day 7, IMM method): 14 fold
- SERPINB2 (37185_at) expression fold change (lot 1, Day 7, IMM method): 3 fold
- SERPINB4 (1549_s_at) expression fold change (lot 1, Day 7, IMM method): 23.9 fold
- SIAT1 (41352_at) expression fold change upon IL-13 stimulation (lot 1, Day 7, IMM method): 21.6 fold
- SLC26A4, pendrin (36376_at) expression fold change (lot 1, Day 7, IMM method): 28.5 fold
- SSI-1 (41592_at) expression, fold change upon IL-13 stimulation (lot 1, Day 7, IMM method): 8.3 fold
- STAT1 (33339_g_at) expression fold change (lot 1, Day 7, IMM method): 2.1 fold
- TSPAN-3 (38612_at) expression, fold change upon IL-13 stimulation (lot 1, Day 7, IMM method): 3.2 fold
- UFD1L (811_at) expression, fold change upon IL-13 stimulation (lot 1, Day 7, IMM method): 3.8 fold
- WARS (38121_at) expression fold change upon IL-13 stimulation (lot 1, Day 7, IMM method): 6 fold
- cig5 (38549_at) expression, fold change upon IL-13 stimulation (lot 1, Day 7, IMM method): 2.2 fold
- diubiquitin (39959_at) expression, fold change upon IL-13 stimulation (lot 1, Day 7, IMM method): 9.7 fold
- AA059458 (65626_at) expression change (lot 1 Day 3 AI): −2.3
- AA151265 (60939_i_at) expression change (lot 1 Day 3 AI): −2.5
- AA160156 (47578_at) expression change (lot 1 Day 3 AI): −2.4
- AA422178 (53747_at) expression change (lot 1 Day 3 AI): −5.3
- AA456099 (59567_at) expression change (lot 1 Day 3 AI): −2
- AA772055 46104_at expression change (lot 1 Day 3 AI): −5.4
- AF052107 38262_at expression change (lot 1 Day 3 AI): −2.5
- AI050855 (64285_at) expression change (lot 1 Day 3 AI): −3.6
- AI264299 (84903_f_at) expression change (lot 1 Day 3 AI): −3.1
- AI432375 (49819_at) expression change (lot 1 Day 3 AI): −4.3
- AI468340 (72604_at) expression change (lot 1 Day 3 AI): −2
- AI760772 (58528_s_at) expression change (lot 1 Day 3 AI): −2.3
- AI829641 (84270_at) expression change (lot 1 Day 3 AI): −5.1
- AI917602 (49985_at) expression change (lot 1 Day 3 AI): −2.3
- AI923984 33546_at expression change (lot 1 Day 3 AI): −3.2
- AL040936 (45684_at) expression change (lot 1 Day 3 AI): −2.7
- AQP5 32909_at expression change (lot 1 Day 3 AI): −6.3
- ARHGEF4 36524_at expression change (lot 1 Day 3 AI): −3.5
- ARHV (82231_at) expression change (lot 1 Day 3 AI): −2
- AW025596 52637_g_at expression change (lot 1 Day 3 AI): −4.8
- BARX2 35425_at expression change (lot 1 Day 3 AI): −3.1
- BPGM (51261_at) expression change (lot 1 Day 3 AI): −4
- CRABP-II 1057_at expression change (lot 1 Day 3 AI): −4.6
- DKFZp434K1210 44682_at expression change (lot 1 Day 3 AI): −4.4
- DREV1 (63813_at) expression change (lot 1 Day 3 AI): −2
- DSC3a, b 47119_at expression change (lot 1 Day 3 AI): −2.4
- EIF4EBP1 (54152_at) expression change (lot 1 Day 3 AI): −2.2
- FLJ10298 (62490_f_at) expression change (lot 1 Day 3 AI): −3.7
- FLJ20048 (49196_at) expression change (lot 1 Day 3 AI): −2.4
- FLJ20373 54030_at expression change (lot 1 Day 3 AI): −2.1
- GABRP 40339_at expression change (lot 1 Day 3 AI): −2.2
- GJA1 32531_at expression change (lot 1 Day 3 AI): −4.4
- GSTA3 58023 at expression change (lot 1 Day 3 AI): −4.6
- HEY1 44783_s_at expression change (lot 1 Day 3 AI): −6.2
- HIN-1 (46200_at) expression change (lot 1 Day 3 AI): −5.4
- HSPC195 44705_at expression change (lot 1 Day 3 AI): −2.5
- IVL 36355_at expression change (lot 1 Day 3 AI): −6.8
- K1IAA1102 (64345_s_at) expression change (lot 1 Day 3 AI): −2.7
- KLF7 34216_at expression change (lot 1 Day 3 AI): −2.5
- KLF7 (42769_at) expression change (lot 1 Day 3 AI): −3.2
- KRT6B (62998_at) expression change (lot 1 Day 3 AI): −3.4
- KRT15 37582_at expression change (lot 1 Day 3 AI): −5.2
- LOC51297 (49616_at) expression change (lot 1 Day 3 AI): −9.1
- LOC51297 (55440_at) expression change (lot 1 Day 3 AI): −57.3
- LOC51297 (55442_g_at) expression change (lot 1 Day 3 AI): −14
- LOC51316 (63342_at) expression change (lot 1 Day 3 AI): −2
- LOC129642 (58288_at) expression change (lot 1 Day 3 AI): −2.8
- LOC131177 (43849_s_at) expression change (lot 1 Day 3 AI): −5.2
- LOC131177 (45394_s_at) expression change (lot 1 Day 3 AI): −4.4
- MGC13102 (54791_at) expression change (lot 1 Day 3 AI): −6.5
- MGC14128 55924_at expression change (lot 1 Day 3 AI): −2.6
- MGC14128 (51669_r_at) expression change (lot 1 Day 3 AI): −2.8
